According to PMC12267056 (Nature, 2025):
“And” between values parts separate entries of the source, which are not always exact repeats. Equal values may be shown once. Read-outs that look alike come from different tables or passages of the source.

Assays:
Design in all cases: made in house; host or cells: Saccharomyces cerevisiae FGY217
[1] = target: T1, human SLC35B1 (wild type) (Homo sapiens, UniProt P78383); format: binding; details: for ΔTm (average melting temperature increase) / ΔTm, individual titrations (source data): 1 mM nucleotide; for ΔTm (average melting temperature increase): purified wild-type SLC35B1–GFP; for ΔTm, individual titrations (source data): wild-type SLC35B1–GFP; for GFP fluorescence after heating (source data Fig 1B): 1 mM substrate
T1 sequence (P78383 1-322): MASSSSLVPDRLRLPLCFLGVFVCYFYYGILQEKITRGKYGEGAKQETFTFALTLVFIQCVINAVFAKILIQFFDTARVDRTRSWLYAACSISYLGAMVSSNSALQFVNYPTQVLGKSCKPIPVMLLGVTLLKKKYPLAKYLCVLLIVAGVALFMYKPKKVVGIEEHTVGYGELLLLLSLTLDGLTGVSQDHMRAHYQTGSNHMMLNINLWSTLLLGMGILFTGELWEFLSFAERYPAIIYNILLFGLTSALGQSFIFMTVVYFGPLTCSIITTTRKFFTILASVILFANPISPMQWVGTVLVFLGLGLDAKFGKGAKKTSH

[2] = target: T1, human SLC35B1 (wild type); experiment: IC50 for competitive inhibition of [3H]ADP uptake in proteoliposomes; format: biochemical; details: for IC50: wild-type SLC35B1 proteoliposomes
[3] = target: T1, human SLC35B1 (wild type); experiment: Uptake of [3H]ATP or [3H]ADP into nucleotide-preloaded SLC35B1 proteoliposomes; format: biochemical; details: for radiolabelled nucleotide uptake into proteoliposomes preloaded with the named nucleotide (individual replicates; ATP-loaded about 100): 2 minutes, sheet ED 6G, internal (preloaded) nucleotide as labelled; for [3H]ADP import with nucleotide preloading, relative to ATP preloading: liposomes preloaded with 1 mM nucleotide; for Single time point (1 min) uptake of [3H]-ADP by proteoliposomes preloaded with the nucleotide: preload 1 mM of the labelled nucleotide
[4] = target: T1, human SLC35B1 (wild type); experiment: Competitive uptake assay: [3H]ADP uptake with 1 mM cold nucleotide; format: biochemical; details: for Normalized SLC35B1-mediated uptake of [3H]ADP in competition with cold nucleotide: 1 mM external cold nucleotide, proteoliposomes preloaded with 1 mM ATP; for [3H]ADP uptake in the presence of cold competitor nucleotide (individual replicates; no-competitor control about 100): competitor 1mM, sheet ED 6F, SLC35B1 proteoliposomes
[5] = target: T1, human SLC35B1 (wild type); experiment: STD NMR of nucleotide interaction with SLC35B1 proteoliposomes; format: binding; details: for Total STD amplification factor (STD NMR signal): 500 μM substrate
[6] = external cold nucleotide 100 uM

Nc1ncnc2c1ncn2[C@@H]1O[C@H](COP(=O)(O)O)[C@@H](O)[C@H]1O [AMP, adenosine monophosphate]
ΔTm (average melting temperature increase) [1]: 1.1 °C
ΔTm, individual titrations (source data) [1]: 1.3 and 1.29 and 0.78
GFP fluorescence after heating (source data Fig 1B) ([1]; temperature 4): 106.601 and 104.432 and 95.3539 and 89.0072 and 98.5673 and 95.7555
GFP fluorescence after heating (source data Fig 1B) ([1]; temperature 10): 120.178 and 88.2039 and 92.06 and 93.2651
GFP fluorescence after heating (source data Fig 1B) ([1]; temperature 20): 106.039 and 98.5673 and 92.7027 and 90.0516 and 90.7747 and 95.3539
GFP fluorescence after heating (source data Fig 1B) ([1]; temperature 30): 90.132 and 77.6476 and 78.8286 and 77.1736 and 79.5837 and 81.6163
GFP fluorescence after heating (source data Fig 1B) ([1]; temperature 40): 21.7011 and 19.6043 and 15.5232 and 15.3143 and 15.5553 and 16.68
GFP fluorescence after heating (source data Fig 1B) ([1]; temperature 50): 5.771 and 5.947 and 3.195 and 3.312 and 3.387 and 3.526

Nc1ccn([C@@H]2O[C@H](COP(=O)(O)OP(=O)(O)OP(=O)(O)O)[C@@H](O)[C@H]2O)c(=O)n1 [CTP, cytidine triphosphate]
Normalized [3H]-ADP uptake activity (IC50 curve) ([2]; external cold nucleotide 0.1 uM): 103.844 and 97.7104 and 98.4453
Normalized [3H]-ADP uptake activity (IC50 curve) ([2]; external cold nucleotide 1 uM): 95.8764 and 97.0509 and 95.3887
Normalized [3H]-ADP uptake activity (IC50 curve) ([2]; external cold nucleotide 10 uM): 67.7481 and 70.5094 and 62.095
Normalized [3H]-ADP uptake activity (IC50 curve) [2, 6]: 15.0773 and 20.2633 and 19.2811
IC50 [2]: 21 µM
ΔTm, individual titrations (source data) [1]: 2.66 and 3.39 and 2.37
radiolabelled nucleotide uptake into proteoliposomes preloaded with the named nucleotide (individual replicates; ATP-loaded about 100) [3]: 34.7169 and 32.8215 and 35.0431 and 28.1 and 30.3083 and 22.2
[3H]ADP import with nucleotide preloading, relative to ATP preloading [3]: approximately 30%
Normalized SLC35B1-mediated uptake of [3H]ADP in competition with cold nucleotide [4]: strong competition
[3H]ADP uptake in the presence of cold competitor nucleotide (individual replicates; no-competitor control about 100) [4]: 12.014 and 11.0419 and 12.1535 and 17.168 and 20.672 and 19.484

O=c1ccn([C@@H]2O[C@H](CO[P@@](=O)(O)O[P@@](=O)(O)OP(=O)(O)O)[C@@H](O)[C@H]2O)c(=O)[nH]1 (stereo in doubt) [UTP, uridine triphosphate]
Normalized [3H]-ADP uptake activity (IC50 curve) ([2]; external cold nucleotide 0.1 uM, 0.1 µM): 98.9492 and 98.9864
activity at 0.1 µM ([2]; external cold nucleotide 0.1 uM, read-out: Normalized [3H]-ADP uptake activity (IC50 curve)): 102%
Normalized [3H]-ADP uptake activity (IC50 curve) ([2]; external cold nucleotide 1 uM, 1 µM): 96.2847 and 99.2915
activity at 1 µM ([2]; external cold nucleotide 1 uM, read-out: Normalized [3H]-ADP uptake activity (IC50 curve)): 90.8%
Normalized [3H]-ADP uptake activity (IC50 curve) ([2]; external cold nucleotide 10 uM, 10 µM): 69.0203 and 73.0881
activity at 10 µM ([2]; external cold nucleotide 10 uM, read-out: Normalized [3H]-ADP uptake activity (IC50 curve)): 65%
Normalized [3H]-ADP uptake activity (IC50 curve) ([2]; external cold nucleotide 100 uM, 100 µM): 29.139 and 27.9119
activity at 100 µM ([2]; external cold nucleotide 100 uM, read-out: Normalized [3H]-ADP uptake activity (IC50 curve)): 28.6%
radiolabelled nucleotide uptake into proteoliposomes preloaded with the named nucleotide (individual replicates; ATP-loaded about 100) [3]: 26.76 and 31.4277 and 36.8954 and 31.1375 and 33.6917 and 28.9625
[3H]ADP import with nucleotide preloading, relative to ATP preloading [3]: approximately 30%
Normalized SLC35B1-mediated uptake of [3H]ADP in competition with cold nucleotide [4]: strong competition
[3H]ADP uptake in the presence of cold competitor nucleotide (individual replicates; no-competitor control about 100) [4]: 11.6037 and 12.7556 and 12.0037 and 16.836 and 18.152 and 16.556

O=c1ccn([C@@H]2O[C@H](COP(=O)(O)OP(=O)(O)OP(=O)(O)O)[C@@H](O)[C@H]2O)c(=O)[nH]1 [UTP, uridine triphosphate]
IC50 [2]: 29 µM and 29.1 µM

Nc1ncnc2c1ncn2[C@@H]1O[C@H](COP(=O)(O)OP(=O)(O)NP(=O)(O)O)[C@@H](O)[C@H]1O [AMP–PNP, adenylyl imidodiphosphate]
Normalized [3H]-ADP uptake activity (IC50 curve) ([2]; external cold nucleotide 0.01 uM, listed as ANP-PNP): 99.81 and 108.605 and 100.75 and 104.879 and 96.5643 and 94.0286
Normalized [3H]-ADP uptake activity (IC50 curve) ([2]; external cold nucleotide 0.1 uM, listed as ANP-PNP): 114.525 and 102.005 and 84.315 and 93.8643 and 84.5 and 91.8286
Normalized [3H]-ADP uptake activity (IC50 curve) ([2]; external cold nucleotide 1 uM, listed as ANP-PNP): 100.22 and 103.765 and 80.9 and 74.0571 and 74.9429
Single time point (1 min) uptake of [3H]-ADP by proteoliposomes preloaded with the nucleotide [3]: equivalent
Single time point (1 min) uptake of [3H]-ADP by proteoliposomes preloaded with the nucleotide ([3]; listed as AMP-PNP): 7.11 and 6.164 and 6.553
1H integral (off-resonance spectrum) [5]: 2.67E+09
STD integral [5]: 3.83E+08
Total STD amplification factor (STD NMR signal) [5]: equivalent
Total STD amplification factor (STD NMR signal) ([5]; listed as AMP-PNP): 7.167

O=c1ccn([C@@H]2O[C@H](COP(=O)(O)OP(=O)(O)O)[C@@H](O)[C@H]2O)c(=O)[nH]1 [UDP, uridine diphosphate]
Normalized SLC35B1-mediated uptake of [3H]ADP in competition with cold nucleotide [4]: more effective at competition
[3H]ADP uptake in the presence of cold competitor nucleotide (individual replicates; no-competitor control about 100) [4]: 0.8481 and 1.885 and 1.122 and 21.524 and 20.444 and 14.96

Nc1nc2c(ncn2[C@@H]2O[C@H](COP(=O)(O)OP(=O)(O)OP(=O)(O)O)[C@@H](O)[C@H]2O)c(=O)[nH]1 [GTP]
Normalized [3H]-ADP uptake activity (IC50 curve) ([2]; external cold nucleotide 1 uM): 88.1 and 101.287 and 103.95
Normalized [3H]-ADP uptake activity (IC50 curve) ([2]; external cold nucleotide 10 uM): 84.475 and 90.925 and 119.487
Normalized [3H]-ADP uptake activity (IC50 curve) [2, 6]: 92.075 and 105.213 and 83.1625
Normalized [3H]-ADP uptake activity (IC50 curve) ([2]; external cold nucleotide 1000 uM): 48.75 and 67.325 and 73.7625
Normalized [3H]-ADP uptake activity (IC50 curve) ([2]; external cold nucleotide 100000 uM): 2.4125 and 1.7125 and 1.675
IC50 [2]: 3500 µM
ΔTm (average melting temperature increase) [1]: poor thermostabilization
ΔTm, individual titrations (source data) [1]: 1.35 and 2.4 and 1.45
1H integral (off-resonance spectrum) [5]: 4.09E+10
STD integral [5]: 2.66E+09
Total STD amplification factor (STD NMR signal) [5]: low STD NMR signals
Normalized SLC35B1-mediated uptake of [3H]ADP in competition with cold nucleotide [4]: only weak competition
[3H]ADP uptake in the presence of cold competitor nucleotide (individual replicates; no-competitor control about 100) [4]: 82.2279 and 86.0047 and 83.9395 and 58.276 and 54.036 and 48.82

Nc1ccn([C@@H]2O[C@H](COP(=O)(O)OP(=O)(O)O)[C@@H](O)[C@H]2O)c(=O)n1 [CDP]
Normalized SLC35B1-mediated uptake of [3H]ADP in competition with cold nucleotide [4]: more effective at competition
[3H]ADP uptake in the presence of cold competitor nucleotide (individual replicates; no-competitor control about 100) [4]: 1.97 and 2.619 and 2.963 and 13.22 and 12.328 and 14.044

Nc1ncnc2c1ncn2[C@@H]1O[C@H](COP(=O)(O)OP(=O)(O)OP(=O)(O)O)[C@@H](O)[C@H]1O [[^3H]ATP]
One-minute uptake of [3H]ATP by SLC35B1 proteoliposomes ([3]; Unloaded (preloaded with buffer)): 0.4851
